According to patent publication US12466816B2, “Fused cyclic compound capable of degrading protein and use thereof” (Medshine Discovery Inc., priority 2019, dated 2025):

Key:
Type in all cases: cell-based
tumor cell lines = experiment: Cell experiment: CCK-8 growth inhibition of tumor cell lines; details: 72 hours, hematological tumor cells and some liver cancer cells, read-out: growth inhibitory effect (inhibition rate)
Method: Different cells were seeded in 96-well plates (the density of adherent cells was 1,000/well and the density of suspension cells was 10,000/well), 10 μM of WX106 was added for 72 hours of action, and CCK-8 reagent (Meilun Biotechnology, MA0218-L) was added for 2 hours of reaction thereafter; and the plate was then read with a microplate reader (SpectraMax i3) and the inhibition rate was calculated. Inhibition rate=[(Ac−As)/(Ac−Ab)]×100% (where As represents the absorbance of experimental wells, Ac represents the absorbance of control wells, and Ab represents the absorbance of blank wells).
Eighteen tumor cell lines were treated with 10 μM of WX106 for 72 hours, and the rate of inhibition of cell growth by WX106 was calculated.

GSPT1 = biological target: T1, GSPT1 (Homo sapiens, UniProt P15170); experiment: Detection of protein degradation by the drug (Western blot); details: MOLT-4 cells
T1 construct: endogenous in cells; host or cells: MOLT-4
T1 sequence (P15170 whole entry): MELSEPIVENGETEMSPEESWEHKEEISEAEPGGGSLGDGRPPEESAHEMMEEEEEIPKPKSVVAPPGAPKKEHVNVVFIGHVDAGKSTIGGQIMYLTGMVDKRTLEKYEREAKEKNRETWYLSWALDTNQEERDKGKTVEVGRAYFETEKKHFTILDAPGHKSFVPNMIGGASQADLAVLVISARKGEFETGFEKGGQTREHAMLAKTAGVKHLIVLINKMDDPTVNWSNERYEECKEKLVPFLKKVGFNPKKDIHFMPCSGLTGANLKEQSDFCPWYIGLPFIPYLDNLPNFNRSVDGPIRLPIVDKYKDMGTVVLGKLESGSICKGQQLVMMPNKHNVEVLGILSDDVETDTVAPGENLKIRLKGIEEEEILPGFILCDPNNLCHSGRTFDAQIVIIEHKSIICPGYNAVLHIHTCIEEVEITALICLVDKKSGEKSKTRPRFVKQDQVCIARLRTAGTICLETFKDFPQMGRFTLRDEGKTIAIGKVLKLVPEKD

CK1α = biological target: T2, CK1α (Homo sapiens, UniProt P48729); experiment: as above; details: MOLT-4 cells
T2 construct: endogenous in cells; host or cells: MOLT-4
T2 sequence (P48729 whole entry): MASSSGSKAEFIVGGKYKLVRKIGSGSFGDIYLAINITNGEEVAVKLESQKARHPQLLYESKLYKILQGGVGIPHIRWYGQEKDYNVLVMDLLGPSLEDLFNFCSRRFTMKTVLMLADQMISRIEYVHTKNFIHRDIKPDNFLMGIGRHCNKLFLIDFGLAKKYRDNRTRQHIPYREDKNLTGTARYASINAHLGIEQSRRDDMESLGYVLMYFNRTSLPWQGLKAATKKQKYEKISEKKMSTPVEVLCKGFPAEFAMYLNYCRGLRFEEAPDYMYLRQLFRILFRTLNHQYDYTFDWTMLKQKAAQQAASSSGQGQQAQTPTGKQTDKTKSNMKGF

Wee1-CRBN complex = biological target: T3, Wee1-CRBN complex (Homo sapiens, UniProt P30291+Q96SW2); experiment: Co-immunoprecipitation; details: 293T cells
T3 construct: expressed in transfected cells; host or cells: 293T
T3 sequence (Q96SW2 whole entry): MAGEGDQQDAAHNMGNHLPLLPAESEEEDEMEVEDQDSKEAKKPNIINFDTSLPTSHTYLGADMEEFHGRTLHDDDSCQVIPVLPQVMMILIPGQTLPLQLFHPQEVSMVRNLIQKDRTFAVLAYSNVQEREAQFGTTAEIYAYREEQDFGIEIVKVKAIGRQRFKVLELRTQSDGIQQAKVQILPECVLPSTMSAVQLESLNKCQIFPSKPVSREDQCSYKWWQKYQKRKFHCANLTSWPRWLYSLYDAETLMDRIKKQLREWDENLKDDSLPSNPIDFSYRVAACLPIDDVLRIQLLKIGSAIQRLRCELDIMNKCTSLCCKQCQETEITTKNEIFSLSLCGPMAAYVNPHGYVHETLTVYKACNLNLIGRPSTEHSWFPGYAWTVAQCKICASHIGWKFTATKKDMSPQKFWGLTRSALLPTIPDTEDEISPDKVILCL
T3 sequence (P30291 whole entry): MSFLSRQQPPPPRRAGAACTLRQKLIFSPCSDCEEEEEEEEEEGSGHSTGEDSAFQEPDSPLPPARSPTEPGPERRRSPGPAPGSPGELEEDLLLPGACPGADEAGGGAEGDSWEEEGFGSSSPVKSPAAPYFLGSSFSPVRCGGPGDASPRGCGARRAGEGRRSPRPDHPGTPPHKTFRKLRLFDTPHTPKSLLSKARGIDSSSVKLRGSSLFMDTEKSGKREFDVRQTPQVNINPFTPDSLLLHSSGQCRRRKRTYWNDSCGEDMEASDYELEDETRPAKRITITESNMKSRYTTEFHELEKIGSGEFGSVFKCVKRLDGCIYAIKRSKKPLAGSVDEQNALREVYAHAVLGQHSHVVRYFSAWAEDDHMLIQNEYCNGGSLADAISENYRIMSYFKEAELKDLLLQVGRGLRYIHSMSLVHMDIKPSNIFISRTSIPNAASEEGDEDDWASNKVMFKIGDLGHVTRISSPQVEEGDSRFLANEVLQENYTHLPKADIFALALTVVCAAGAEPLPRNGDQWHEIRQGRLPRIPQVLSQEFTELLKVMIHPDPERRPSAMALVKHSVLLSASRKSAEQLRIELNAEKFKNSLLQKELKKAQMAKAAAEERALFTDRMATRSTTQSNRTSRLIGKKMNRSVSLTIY
T3 sequence (Q16531 whole entry partner): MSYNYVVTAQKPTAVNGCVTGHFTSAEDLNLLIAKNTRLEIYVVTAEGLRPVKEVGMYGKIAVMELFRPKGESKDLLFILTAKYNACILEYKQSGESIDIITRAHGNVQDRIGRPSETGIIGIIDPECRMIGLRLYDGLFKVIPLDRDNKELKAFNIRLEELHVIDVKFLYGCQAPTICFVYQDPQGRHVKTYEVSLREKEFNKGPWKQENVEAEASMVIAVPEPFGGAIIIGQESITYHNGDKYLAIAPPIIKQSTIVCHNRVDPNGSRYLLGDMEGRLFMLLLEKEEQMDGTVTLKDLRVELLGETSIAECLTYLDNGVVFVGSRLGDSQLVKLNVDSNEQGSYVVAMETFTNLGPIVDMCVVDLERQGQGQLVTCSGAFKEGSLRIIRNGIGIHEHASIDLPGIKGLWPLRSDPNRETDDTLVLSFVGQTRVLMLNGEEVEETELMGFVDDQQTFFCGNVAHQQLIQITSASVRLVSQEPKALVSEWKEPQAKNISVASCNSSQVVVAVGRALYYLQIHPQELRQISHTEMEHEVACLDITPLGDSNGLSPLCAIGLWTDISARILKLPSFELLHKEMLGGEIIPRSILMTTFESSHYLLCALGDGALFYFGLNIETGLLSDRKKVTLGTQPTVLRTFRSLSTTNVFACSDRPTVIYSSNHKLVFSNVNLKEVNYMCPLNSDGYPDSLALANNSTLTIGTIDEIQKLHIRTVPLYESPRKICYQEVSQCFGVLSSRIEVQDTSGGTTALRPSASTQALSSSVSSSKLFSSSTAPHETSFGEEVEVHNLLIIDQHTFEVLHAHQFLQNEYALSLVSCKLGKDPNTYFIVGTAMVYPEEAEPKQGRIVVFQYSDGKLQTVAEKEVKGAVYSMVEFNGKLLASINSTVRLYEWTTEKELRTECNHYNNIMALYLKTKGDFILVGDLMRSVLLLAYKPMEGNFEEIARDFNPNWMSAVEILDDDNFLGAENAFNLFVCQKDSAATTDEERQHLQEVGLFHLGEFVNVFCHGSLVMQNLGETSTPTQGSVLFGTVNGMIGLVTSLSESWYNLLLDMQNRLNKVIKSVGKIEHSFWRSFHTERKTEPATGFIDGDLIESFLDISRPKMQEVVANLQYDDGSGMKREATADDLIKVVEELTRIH
Method: The plasmid was transfected into 293T cells. After 24 hours, the compound WX106 was added to treat the cells for a certain period of time. The cells were lysed with NETN lysis buffer (150 mM NaCl, 50 mM Tris-HCl of pH 8.0, 1% NP40), followed by incubation with agarose beads (EZview™ Red anti-HA affinity gel, Sigma, E6779; anti-FLAG® M2 affinity gel, Sigma, A2220) and lysis buffer for 2 hours. The beads were washed 4 times with lysis buffer, loading buffer (100 mM Tris-HCl, 4% SDS, 0.05% BPB, 2% β-mercaptoethanol, 20% glycerol) was added and detection was performed using Western blot.
According to FIG. 24, HA CRBN (CRBN was overexpressed in cells by transfection technology; HA is a polypeptide and CRBN fusion expression; CRBN refers to endogenous CRBN in cells) and FLAG Wee1 (Wee1 was overexpressed in cells by transfection technology; FLAG is a polypeptide and CRBN fusion expression; Wee1 refers to endogenous Wee1 in cells) were overexpressed in 293T cells [and left to stand] for 24 hours after transfection; thereafter, the cells were treated with 20 μM MG132 or 10 μM WX106 1 h and 2 h before they were harvested for Co-IP (co-immunoprecipitation) assay, respectively. […] According to FIG. 26, overexpressed CRBN and endogenous Wee1 were used for co-immunoprecipitation. […] According to FIG. 27, different Wee1 fragments were cloned separately and subjected to Co-IP with CRBN.

Wee1 [1] = biological target: T4, Wee1 (Homo sapiens, UniProt P30291); experiment: Label-free quantitative mass spectrometry for proteomic analysis; parameters: endogenous in cells; host or cells: MOLT-4; details: MOLT-4, 10 μM WX106 (10 μM MG132 where added), 6 hours, replicates
T4 sequence (P30291 whole entry): as the sequence (P30291 whole entry) above
Method: There are three treatment methods for the selected MOLT-4 cells; one is to directly add DMSO as a control, the other is to add 10 μM WX106, and the third is to add 10 μM WX106 and 10 μM MG132 (proteasome inhibitor; APEXBIO, A2585 and MG132 are capable of blocking ubiquitin-mediated protein degradation). Two replicates were prepared for the 10 μM WX106 plus 10 μM MG132 group, and three replicates were prepared for the DMSO control group and 10 μM WX106 administration group, respectively. The drug treatment time for MOLT-4 was 6 hours. Mass spectrometry samples were prepared based on the basic steps of urea cleavage, reductive alkylation, desalting, and lyophilization. The prepared samples were subjected to two-hour gradient analysis on a Q Exactive HF mass spectrometer, followed by data analysis.

Wee1 [2] = biological target: T4, Wee1; experiment: Detection of compounds that degrade Wee1 protein (Western blot); parameters: endogenous in cells; host or cells: MOLT-4, U87-MG; details: MOLT-4 cells 10 μM 4 hours, U87-MG cells 1 μM 24 hours
Method: MOLT-4 cells were treated with 10 μM of the test compound for 4 hours and U87-MG cells were treated with 1 μM of the test compound for 24 hours, respectively. With GAPDH (Santa Cruz, sc-32233) as the internal reference protein, the protein level of Wee1 (Cell Signaling, 13084S) was detected using Western blot. Cells were collected, lysed with protein loading buffer (1M Tris-HCl, 10% SDS, 0.025% BPB), and denatured at 98° C. for 10 min before Western blot analysis. The main steps include: 1) Electrophoresis: The protein was separated by SDS-PAGE electrophoresis. During the electrophoresis, the voltage was adjusted to 80 v for about 30 min, and then the voltage was adjusted to 120 v until the bromophenol blue ran out of the gel. 2) Transfer to a membrane: the gel was stuck to a methanol-activated PVDF membrane using the method of wet transfer, and after the top and bottom layers were wrapped with filter paper, the membrane was placed into the gel holder cassette and fixed to the transfer tank, and transfer was performed at a constant current of 250 mA for 90 min; 3) Blocking: the PVDF membrane with trace protein was placed into the antibody incubation box, 5% skim milk was added to completely cover the PVDF membrane, and incubation was performed for 1 hour on a shaker at room temperature; 4) Incubation of the primary antibody: the primary antibody was prepared with 5% BSA (1:1000) and incubated overnight on a shaker at 4° C.; 5) Incubation of the secondary antibody: the membrane was washed thrice with TBST, the secondary antibody (prepared with 5% skim milk) was added (according to the species source of the primary antibody, different secondary antibodies with a dilution range of 1:3000-1:10000 were used), and incubation was performed on a shaker at room temperature for one hour; 5) Exposure: the membrane was washed thrice with TBST and the bands on the membrane were detected by chemiluminescence.

pro-degradation effect on GSPT1 (GSPT1): no significant pro-degradation effect
pro-degradation effect on CK1α (CK1α): no significant pro-degradation effect
complex formed by Wee1 and CRBN (HA CRBN and FLAG Wee1 overexpressed) (Wee1-CRBN complex; 10 μM WX106, 20 μM MG132, FIG. 24): significantly increased
complex formed by Wee1 and CRBN (overexpressed CRBN and endogenous Wee1) (Wee1-CRBN complex; FIG. 26): significantly increased
Wee1 LFQ intensity (Wee1 [1]): 0
pro-degradation effect on Wee1 (Wee1 [2]): pro-degradation effect on Wee1
relative strength of the pro-degradation effect on Wee1 (Wee1 [2]; among tested compounds): the strongest
Compound: Cc1ccc(C(=O)Nc2ccc3occ(C4CCC(=O)NC4=O)c3c2)cc1Cl (centres unmarked) [WX106]
inhibition at 10 µM (tumor cell lines): > 50%
